System: Bacillus subtilis
Assay: Antimicrobial disk diffusion assay
Assay type: cell-based
Conditions: disks containing 10 μg
Protocol: Microbial extracts were tested for antimicrobial activity by a disk diffusion assay. Diffusion of the metabolites into the agar creates a zone of growth inhibition around the disk if the organism is susceptible to the antimicrobial metabolite. Ten to 20 μl amounts of extract or extract fractions were applied to Whatman 3MM filter paper disks 7 mm in diameter. The disks were dried under vacuum overnight to evaporate the solvent. Bioassays were carried out with the target organism Bacillus subtilis. The target organisms were grown in nutrient broth (Difco), and adjusted to an A600 of 0.1. One hundred μl of the cell suspension was applied to the surface of a nutrient agar plate and spread uniformly with a sterile spreader. After the liquid had absorbed into the agar, the disks were placed on the surface, about 1 cm apart. The plates were incubated at 25-30° C. for 24-36 hours. Antimicrobial activity was indicated by a zone of inhibition around a disk where bacterial growth was prevented. […] In addition, positive and negative control disks were utilized. For the negative control, a disk which received only methanol was run in each test. […] For the positive control, disks containing the antimicrobial gentamycin (10 μg) were used.

## gentamycin
  zone of inhibition, positive control disk: showed zones of inhibition

From patent US6569640B1, “Method of fractionation of biologically-derived materials using critical fluids” (Aphios Corporation, priority 1993, dated 2003)
